This is an account of results in patent US7705016B2, “Regulation of food intake by modulation of long-chain fatty acyl-CoA levels in the hypothalamus” (Albert Einstein College of Medicine of Yeshiva University, priority 2003, dated 2010).

This assay concerns hepatic glucose fluxes. Briefly: Hepatic glucose fluxes (flux through Glc-6-Pase, glucose cycling, direct pathway) after ICV OA. It is filed as in vivo, rat. The protocol:
Analytical Procedures and Calculations. Plasma glucose was measured by the glucose oxidase method (Glucose Analyzer II, Beckman Instruments, Inc. Fullerton, Calif., USA). Plasma insulin and leptin levels were determined by RIA (rat Leptin RIA kit, Linco Research Inc., St. Charles, Mo.). Serum adiponectin was measured by RIA (Linco Research, Inc., St. Charles, Mo.). Plasma non-esterified fatty acid concentrations were determined an enzymatic method by an automated kit according to the manufacturer's specifications (Waco Pure Chemical Industries. Osaka, Japan). The radioactivity of [3-^3H]glucose in plasma was measured from supernatants of Ba (OH)2 and from ZnSO4 precipitates (Somogyi procedure), after each was evaporated to dryness for the removal of tritiated water. Hepatic uridine diphosphoglucose (UDP-glucose) concentrations and specific activities were obtained by two sequential chromatographic separations, as previously described (Giaccari and Rossetti, 1989; 1992; Rossetti et al., 1993; 1996). Calculations were performed as described (Barzilai et al., 1997).
ICV OA markedly decreases the in vivo flux through Glc-6-Pase. GP represents the net contribution of glucosyl units derived from gluconeogenesis and glycogenolysis. However, a portion of glucose entering the liver via phophorylation by glucokinase is also a substrate for de-phosphorylation via Glc-6-Pase. This futile cycle between glucokinase and Glc-6-Pase is commonly named glucose cycling and accounts for the difference between the total glucose output (flux through Glc-6-Pase) and GP (FIG. 9a).
In order to further delineate the mechanisms responsible for the effect of ICV OA infusion on hepatic glucose production we estimated the in vivo flux through Glc-6-Pase and the relative contribution of glucose cycling to glucose output (Table 3; FIG. 9b,c). FIG. 9b,c depict the effect of ICV OA and ICV vehicle on the rates of hepatic glucose fluxes during the pancreatic-insulin clamp procedure. […]

Setting [1] is: caloric restricted rats (55 kcal/d).

Consider `CCCCCCCC/C=C\CCCCCCCC(=O)O` [OA, oleic acid], for which the glucose cycling result is, setting by setting: under setting [1], “modestly and similarly decreased”; (over-fed rats (140 kcal/d)) “modestly and similarly decreased”. In addition, the “total glucose output (in vivo flux through glucose-6-phosphatase)” value under setting [1] is listed as “markedly suppressed”.
